According to US5436243A, “Aminoanthraquinone derivatives to combat multidrug resistance” (priority 1993, dated 1995):
Entries after “also recorded” stand apart in the source; their conditions may differ. Read-outs that look alike come from different tables or passages of the source.

Legend:
[1] = test system: P-glycoprotein; conditions: cited from earlier work
[2] = test system: P-glycoprotein; conditions: intact MDR cells and MDR membrane vesicles; cited from earlier work
[3] = test system: P-glycoprotein; conditions: literature; cited from earlier work
[4] = Partition in Bligh-Dyer extracts; type: physicochemical
Protocol: At these wavelengths, there was minimal absorbance by cellular components contained in the chloroform phase. […] METHOD: […] The monolayers were treated with 25 μM 1b or 1c and incubated at 37° C. After incubating the samples for the times indicated in FIG. 1, the monolayers were washed three times with DPBS and detached using 1 ml of Trypsin-EDTA.An aliquot of the cell suspension was counted using a Coulter Counter and a 0.8 ml aliquot was extracted in a Bligh-Dyer extraction (Bligh et at., Can. J. Biochem. 31:911-916 (1959)). The absorbance of the lower chloroform phase was measured at 648 nm and 600 nm using a spectrophotometer. The amount of 1b or 1c present in the extract was quantitated from a standard curve performed in cell extracts. The data is expressed as nmol anthraquinone/10^6 cells.

[5] = test system: PKC; experiment: Micellar PKC screening assay; type: biochemical
Source text: The N-substituted diaminoanthraquinone, 1b, (1,4-bis-[[3'-(diethylamino)propyl]amino]anthraquinone), was identified as a PKC inhibitor in the micellar PKC screening assay and in platelets. […] Spectrophotometric analysis of 1b and lc indicated they were excellent chromophores with absorbance maxima at 648 and 600 nm in chloroform, respectively, and extinction coefficients of approximately 20,000. At these wavelengths, there was minimal absorbance by cellular components contained in the chloroform phase. These properties of 1b and 1c were utilized to determine the time course of accumulation of these compounds in MDR MCF7 Adr 10 cells.
The activities of 1a, 1b, 1c and 1d and mitoxantrone, an anthraquinone antineoplastic drug, were evaluated in vinblastine drug accumulation assays performed by the following method. […] Mitoxantrone was identified as a PKC inhibitor in miceliar PKC assays. Compound 1d (1,4-bis-[[2-(4-morpholino)ethyl]amino]anthraquinone) was only evaluated in cellular studies.

[6] = test system: MCF7 Adr 10 human breast cancer cells; experiment: Vinblastine accumulation assay, MCF7 Adr 10; type: cell-based; conditions: for activity in vinblastine accumulation assay / drug accumulation: MDR MCF7
Protocol: [^3 H] vinblastine ([^3 H] VLB) was added to a final concentration of 100 nM and the cells were incubated for 2.5 hours. At this time, the cells were washed 3 times in ice cold PBS and lysed in buffer containing 0.1% Triton X-100. Net accumulation of [^3 H] vinblastine was expressed as pmol/mg protein. In [^3 H]

[7] = test system: casein kinase 2; experiment: Casein kinase 2 inhibition; type: biochemical
Source text: One possible explanation for stimulation of phosphorylation of P-glycoprotein and MARCKS is that 1c may activate PKC or other cellular kinases by signal transduction pathways that have not yet been identified to phosphorylate these proteins. An alternative explanation for stimulation of phosphorylation of P-glycoprotein and MARCKS is that 1c inhibits protein phosphatases.

[8] = test system: MDR cell lines; conditions: literature, cited from earlier work
[9] = test system: patients; conditions: cited from earlier work
[10] = test system: PKC; conditions: literature; cited from earlier work
[11] = test system: patients; conditions: human, in vivo; cited from earlier work
[12] = clinical trials; cited from earlier work
[13] = test system: MCF7 Adr 10; experiment: 72 hour MTT proliferation assay, reversal of drug resistance in MCF7 Adr 10; type: cell-based, human; conditions: [1c] 0 μM; for IC50: Homo sapiens, NCI/ADR-RES
Protocol: (§1) In 72 hour MTT proliferation assays using the following method, compounds 1b, 1c and 1d were assessed for inhibition of Vinca alkaloid and anthracycline drug resistance in MDR MCF7. Additionally, compounds 1b and 1c were assessed for potentiation of sensitivity to Vinca alkaloid and anthracycline drugs in the parental MCF7 WT cell line.
(§2) METHOD: 5000 cells per well were plated in 100 μl of IMDM containing 10% FCS and allowed to adhere overnight. The following day the cells were treated with N-substituted 1,4-diaminoanthraquinones and exposed to graded concentrations of antineoplastic agents. 50 μl of IMDM 10% FCS containing either vehicle or N-substituted 1,4-diaminoanthraquinones at 3 times the final tested concentration was added to cells at timed intervals. The plates were incubated for 2 hours at 37° C. to allow maximal cellular accumulation of N-substituted 1,4-diaminoanthraquinones. 40 μl aliquots of IMDM 10% FCS containing either vehicle or graded concentrations of antineoplastic drugs at 5 times the final concentration were added to treatment groups. Following this addition, 10 μl of IMDM 10% FCS containing either vehicle or N-substituted 1,4-diaminoanthraquinone at 5 times the final concentration was added to each group of wells. The cells were incubated for 72 hours after treatment. At this time the viable cells in each treatment group were estimated in a colorimetric assay by adding MTT and incubating the cells at 37° C. for 3-4 hours. The media in each well was aspirated and MTT formazan was solubilized in isopropyl alcohol acidified with 0.1 N HCl. The absorbance of the solubilized formazan was quantitated using a plate reader spectrophotometer. […] The concentrations of antineoplastic drugs which inhibited proliferation by 50% (IC50's) were estimated by calculating a percentage from the ratio: antineoplastic drug treated groups/control group absorbance and plotting the dose response curve on semilog paper. The IC50 was estimated from this curve. To assess the effects of inhibition of resistance by N-substituted 1,4-diaminoanthraquinones, the percentages were calculated relative to cell groups treated with resistance modifier alone and IC50's calculated as above. A reversal factor was calculated by dividing the IC50 to the antineoplastic drug alone (Control group) by the IC50 to antineoplastic drug in cells treated with resistance modifier.

[14] = test system: patients with tumors clinically resistant to adriamycin; conditions: cited from earlier work
[15] = test system: MCF7 WT; experiment: 72 hour MTT proliferation assay, potentiation of sensitivity in MCF7 WT; type: cell-based, human
Protocol: as §1, §2

[16] = test system: MCF7 WT; experiment: Tumor cell clonogenic assay, MCF7 WT; type: cell-based, human; conditions: Homo sapiens, MCF7, read-out: Continuous Exposure IC50, MCF7 WT
Protocol: The tumor cell clonogenic assays measure clonal proliferation of tumor cells. In this assay, 300-500 cells are plated in 10 cm^2 wells, allowed to adhere overnight, and are treated the following day. Tumor cell colonies were counted after 10-12 days of culture. […] The IC50's are calculated as described above for the MTT proliferation assays.

[17] = test system: MCF7 Adr 10; experiment: Tumor cell clonogenic assay, MCF7 ADR 10; type: cell-based, human; conditions: Homo sapiens, NCI/ADR-RES, read-out: Continuous Exposure IC50, MCF7 ADR 10
Protocol: The tumor cell clonogenic assays measure clonal proliferation of tumor cells. In this assay, 300-500 cells are plated in 10 cm^2 wells, allowed to adhere overnight, and are treated the following day. Tumor cell colonies were counted after 10-12 days of culture. The times of exposure in these experiments are similar; however, the concentrations of FCS are 20% in the CFU-GM assay and 10% in the tumor cell clonogenic assays. The IC50's are calculated as described above for the MTT proliferation assays.

[18] = [3H] VLB binding to MCF7 WT membrane vesicles; design: species or system human; conditions: MCF7 WT vesicles
Protocol: METHOD: Membrane vesicles from sensitive and MDR MCF7 were prepared by nitrogen cavitation and isolated by centrifugation in discontinuous sucrose gradients. […] In the presence of 100 nM [^3 H] VLB and ATP, total and nonspecific binding of [^3 H] VLB (experimentally defined as binding in the presence of a 100 μM unlabeled VLB) was measured. Association of [^3 H] […] In contrast, association of [^3 H] […] VLB with MCF7 WT vesicles.

[19] = target: P-glycoprotein in MCF7 Adr 10 membrane vesicles (Homo sapiens, UniProt P08183)
Sequence of P-glycoprotein in MCF7 Adr 10 membrane vesicles (P08183 whole entry): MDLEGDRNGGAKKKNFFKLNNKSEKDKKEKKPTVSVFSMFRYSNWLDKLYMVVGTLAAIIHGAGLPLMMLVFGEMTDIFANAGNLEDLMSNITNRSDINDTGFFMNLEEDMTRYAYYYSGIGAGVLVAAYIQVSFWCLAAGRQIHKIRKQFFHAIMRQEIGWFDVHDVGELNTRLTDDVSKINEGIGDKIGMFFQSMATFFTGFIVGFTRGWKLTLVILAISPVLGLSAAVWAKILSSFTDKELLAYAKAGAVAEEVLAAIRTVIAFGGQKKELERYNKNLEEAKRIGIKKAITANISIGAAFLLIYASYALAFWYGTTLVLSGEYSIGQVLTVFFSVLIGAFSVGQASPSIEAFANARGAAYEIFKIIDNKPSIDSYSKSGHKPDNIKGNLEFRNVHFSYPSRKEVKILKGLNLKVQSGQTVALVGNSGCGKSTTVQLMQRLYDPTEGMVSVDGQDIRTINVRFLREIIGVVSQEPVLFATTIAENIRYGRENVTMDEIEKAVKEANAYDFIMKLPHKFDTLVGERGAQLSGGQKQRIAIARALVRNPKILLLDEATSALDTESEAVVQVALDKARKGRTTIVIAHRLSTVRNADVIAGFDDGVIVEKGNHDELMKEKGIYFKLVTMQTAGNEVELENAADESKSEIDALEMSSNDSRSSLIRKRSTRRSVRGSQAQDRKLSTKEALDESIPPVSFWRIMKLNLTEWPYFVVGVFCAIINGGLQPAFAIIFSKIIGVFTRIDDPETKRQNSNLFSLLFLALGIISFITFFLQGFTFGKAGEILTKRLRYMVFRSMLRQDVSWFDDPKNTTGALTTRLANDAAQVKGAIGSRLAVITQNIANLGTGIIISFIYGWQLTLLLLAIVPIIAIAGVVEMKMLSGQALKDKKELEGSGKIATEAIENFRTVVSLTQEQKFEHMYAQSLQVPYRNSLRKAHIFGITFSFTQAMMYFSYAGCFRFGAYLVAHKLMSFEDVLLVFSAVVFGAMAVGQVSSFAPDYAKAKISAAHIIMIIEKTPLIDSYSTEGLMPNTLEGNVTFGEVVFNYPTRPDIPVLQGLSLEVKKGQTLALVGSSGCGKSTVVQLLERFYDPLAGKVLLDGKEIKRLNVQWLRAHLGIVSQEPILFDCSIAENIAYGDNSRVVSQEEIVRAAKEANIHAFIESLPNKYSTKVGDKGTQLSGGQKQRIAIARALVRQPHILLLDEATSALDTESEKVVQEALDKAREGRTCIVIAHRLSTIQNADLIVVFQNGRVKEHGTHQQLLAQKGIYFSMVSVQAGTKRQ

Compound: Cyclosporin A
- inhibition of vincristine and vinblastine binding to P-glycoprotein [1]: competitively inhibits vincristine and vinblastine binding to the P-glycoprotein
- [3H] azidopine photoaffinity labeling of P-glycoprotein [2]: inhibit

Compound: CCCCCCCCCCCCCC(=O)O[C@@H]1[C@@H](C)[C@@]2(O)[C@@H](C=C(CO)C[C@]3(O)C(=O)C(C)=C[C@@H]23)[C@@H]2C(C)(C)[C@]12OC(C)=O [phorbol myristate acetate]
- phosphorylation of the P-glycoprotein [3]: stimulate phosphorylation of the P-glycoprotein

Compound: O=C1c2c(O)ccc(O)c2C(=O)c2c(NCCNCCO)ccc(NCCNCCO)c21 [mitoxantrone, reference compound]
- partition into the lower chloroform phase [4]: does not partition into the lower chloroform phase
- PKC activity in micellar PKC screening assay [5]: PKC inhibitor
- inhibitory activity in in vitro PKC assays relative to 1b or 1c [5]: greater inhibitory activity
- activity in vinblastine accumulation assay / drug accumulation [6]: significant loss of activity; also recorded: did not show significant activity
- activity in vinblastine accumulation assay / drug accumulation ([6]; listed as Mitoxantrone): does not increase drug accumulation
- inhibitory activity in in vitro casein kinase 2 assays relative to 1b or 1c [7]: greater inhibitory activity
- drug accumulation and reversal of resistance in MDR cell lines [8]: less cross-resistance

Compound: CCCCCCCCNc1ccc(NCCCCCCCC)c2c1C(=O)c1ccccc1C2=O [Compound 1a, 1,4-bis-(octylamino) anthraquinone]
- PKC activity in micellar PKC screening assay [5]: PKC stimulation
- activity in vinblastine accumulation assay / drug accumulation [6]: inactive; also recorded: did not show significant activity

Compound: CN(C)CCOc1ccc(/C(=C(/CCCl)c2ccccc2)c2ccccc2)cc1 [toremifene]
- drug accumulation and reversal of resistance in MDR cell lines [8]: can also modulate resistance of estrogen receptor-negative MDR cell lines

Compound: COc1ccc(CCN(C)CCCC(C#N)(c2ccc(OC)c(OC)c2)C(C)C)cc1OC (stereo not drawn) [verapamil]
- concentrations inhibiting the MDR phenotype [8]: 2 to 10 µM
- drug accumulation and reversal of resistance in MDR cell lines [8]: more effective in reversal of resistance to anticancer drugs in other studies
- drug accumulation and reversal of resistance in MDR cell lines ([8]; listed as Verapamil): increases in accumulation and decreases in resistance to natural product chemotherapeutic drugs
- dose-limiting toxicity [9]: dose-limiting cardiac toxicity
- PKC inhibition in vitro [10]: non-specifically inhibit PKC in vitro

Compound: COc1ccc(CCN(C)CCC[C@](C#N)(c2ccc(OC)c(OC)c2)C(C)C)cc1OC [D-verapamil]
- toxicity in humans [11]: too toxic to use at high concentrations in humans

Compound: O-acetyl C9 -cyclosporin A [SDZ 33-243]
- [3H] azidopine photoaffinity labeling of P-glycoprotein [2]: inhibit

Compound: OCCN1CCN(CC/C=C2\c3ccccc3Sc3ccc(C(F)(F)F)cc32)CC1 [Trans-flupenthixol]
- drug accumulation and reversal of resistance in MDR cell lines [8]: increased doxorubicin accumulation and reversed the MDR phenotype more effectively in a number of MDR cell lines than verapamil
- antipsychotic potency relative to the cis isomer [12]: much less potent antipsychotic in clinical trials than the cis isomer

Compound: COc1cccc2c1C(=O)c1c(O)c3c(c(O)c1C2=O)C[C@@](O)(C(C)=O)C[C@@H]3O[C@H]1C[C@H](N)[C@H](O)[C@H](C)O1 [DNR, reference compound]
- IC50 ([13]; average ± SD of 3 experiments, read-out: DNR IC50): 6.7 µM
- Reversal Factor (DNR) [13]: 1.0

Compound: CN1CCN(CCCN2c3ccccc3Sc3ccc(C(F)(F)F)cc32)CC1 [trifluoperazine]
- drug accumulation and reversal of resistance in MDR cell lines [8]: increase drug accumulation and decrease resistance in MDR cell lines
- tumor responses ([14]; 36 patients, oral, with constant infusion adriamycin): One complete response and six partial responses
- dose-limiting toxicity ([14]; human, in vivo): Neurotoxicity of trifluoperazine to the extrapyramidal tracts was dose-limiting
- plasma concentrations below those optimal for modulation of chemoresistance in vitro ([14]; human, in vivo): approximately 10 fold
- phosphorylation of the P-glycoprotein [3]: stimulate phosphorylation of the P-glycoprotein
- PKC inhibition in vitro [10]: non-specifically inhibit PKC in vitro

Compound: CC[C@]1(O)C[C@H]2CN(CCc3c([nH]c4ccccc34)[C@@](C(=O)OC)(c3cc4c(cc3OC)N(C=O)[C@H]3[C@@](O)(C(=O)OC)[C@H](OC(C)=O)[C@]5(CC)C=CCN6CC[C@]43[C@@H]65)C2)C1 [VCR, reference compound]
- IC50 ([13]; average ± SD of 3 experiments, read-out: VCR IC50): 3.3 µM
- Reversal Factor (VCR) [13]: 1.0
- IC50 ([15]; Homo sapiens, MCF7, read-out: VCR IC50): 1.9 nM
- Reversal Factor (VCR) ([15]; [1c] 0 μM, MCF7 WT): 1.0
- IC50 [16]: 0.4 nM
- IC50 [17]: 970 nM

Compound: COc1cccc2c1C(=O)c1c(O)c3c(c(O)c1C2=O)C[C@@](O)(C(=O)CO)C[C@@H]3O[C@H]1C[C@H](N)[C@H](O)[C@H](C)O1 [ADR, reference compound]
- IC50 ([13]; average ± SD of 4 experiments, read-out: ADR IC50): 38 µM
- Reversal Factor (ADR) [13]: 1.0
- IC50 [16]: 5.6 nM
- IC50 [17]: 3400 nM

Compound: CCC1(O)CC2CN(CCc3c([nH]c4ccccc34)C(C(=O)OC)(c3cc4c(cc3OC)N(C)C3C(O)(C(=O)OC)C(OC(C)=O)C5(CC)C=CCN6CCC43C65)C2)C1 (stereo not drawn) [[^3 H] VLB]
- association of [3H] VLB relative to MCF7 Adr 10 [18]: approximately 15%
- enhancement of [3H] VLB association by addition of ATP [19]: 2-3 fold
- time to maximal association of [3H] VLB [19]: ≤ 15 min

Compound: O=C1c2ccccc2C(=O)c2c(NCCN3CCOCC3)ccc(NCCN3CCOCC3)c21 [Compound 1d, 1,4-bis-[[2-(4-morpholino)ethyl]amino]anthraquinone]
- minimal effective concentration ([6]; Homo sapiens, NCI/ADR-RES, 100 nM [3H] VLB, 2.5 hours, FIGS. 2 and 3, read-out: lowest concentration which causes a doubling of basal accumulation of vinblastine): 2.5 µM
- activity in vinblastine accumulation assay / drug accumulation [6]: increase vinblastine accumulation in MDR MCF7
